{"source": "patent US11406694B2", "about": "“Vaccine comprising drug and parasite administration” (priority 2016, dated 2022)", "key": {"P. falciparum 7G8": {"system": "P. falciparum 7G8", "test": "Blood stage P. falciparum infection of human volunteers under doxycycline, parasitaemia by qPCR", "type": "in vivo", "settings": "two volunteers, 3×10^6 P. falciparum pRBC, 100 mg doxycycline once daily for 21 days", "procedure": "FIG. 13: Persistence of P. falciparum 7G8 in volunteers receiving doxycycline chemoprophylaxis. […] Volunteers received 3×106 pRBCs on D0, followed by doxycycline treatment administered orally (100 mg/day) from D0 to D20.\nWe have also started human experiments. Initially we have given two volunteers a blood stage infection initiated with 3×10^6 magnet-purified P. falciparum trophozoite-parasitized human red cells (pRBC). At the same time, volunteers were administered 100 mg doxycycline once daily for 21 days, although this could be changed to twice daily. A controlled release form of doxycycline (such as Atridox® comprising doxycycline hyclate) will also be tested.\nParasite concentration is determined whereby the log10 of each known concentration of a standard concentration range is plotted against the quantification cycle of Cq values of the test samples in a linear regression model (y=mx+b) using Biorad CFX manager 2.1 software."}, "Plasmodium parasite": {"system": "Plasmodium parasite", "test": "Blood-stage infection of mice under daily doxycycline treatment (course of infection during infection/drug cure)", "type": "in vivo", "procedure": "The work described herein relates to giving mice and humans a blood stage malaria infection and daily doses of oral (human) or intraperitoneal (mice) doxycycline as a delayed death agent. This cycle can be repeated and we have given mice 1 or 3 cycles of infection/drug cure (IDC) with doxycycline.\nMice (BALB/c or C57/B6) received varying doses of Plasmodium parasite (10^5-10^7 trophozoite parasitised red blood cells; pRBC), administered via intravenous injection (200 μL). Mice were subsequently started on doxycycline treatment (doxycycline hydrate (Sigma) dissolved in 1× phosphate buffered saline, 50 mg/kg administered in ˜100 μL volume via intraperitoneal injection) approximately 1-2 hours post infection. Mice received treatment every day for 7 days. Subsequent infection and drug cures (IDCs) were administered 2 weeks from the day of last treatment (or 3 weeks between infections). Mice were challenged 4 weeks from the day of last treatment of the last round of IDC (or 5 weeks from last infection).\nBlood smears were performed on D1, 2, 4 and 6 post infection during IDC 1, 2 and 3."}}}
{"molecule": "C[C@H]1c2cccc(O)c2C(=O)C2=C(O)[C@]3(O)C(=O)C(C(N)=O)=C(O)[C@@H](N(C)C)[C@@H]3[C@@H](O)[C@@H]21", "note": "[doxycycline]", "values": [{"measurement": "illness of the volunteers", "setting": "P. falciparum 7G8", "value": "did not become ill"}, {"measurement": "time the infection takes to clear", "setting": "Plasmodium parasite; 10^5-10^7 pRBC i.v., doxycycline 50 mg/kg i.p. daily for 7 days", "value": "approximately 4 days"}, {"measurement": "condition of the mice during the infection", "setting": "Plasmodium parasite; pRBC i.v. with doxycycline 50 mg/kg i.p. daily for 7 days", "value": "remain well"}]}
